Assay results: patent US20080146540A1, “Methods of diagnosis and treatment for asthma, allergic rhinitis and other respiratory diseases based on haplotype association” (priority 2003, published 2008)
Read-outs that look alike come from different tables or passages of the source.

Legend:
[1] = tested on: MMP-9; assay: Phase II clinical study CEP-1347-201: MMP-9 change from baseline; assay type: in vivo, human; conditions: for MMP-9 Change from Baseline at Week 8, LS Mean: ANCOVA
Description: Matrix metalloproteinases (MMPs) are members of a family of proteolytic enzymes that degrade the extracellular matrix and […] tissue inhibitors (TIMPs). Up regulation of MMP-9 results in subepithelial collagen deposition and airway remodeling leading to irreversible airways obstruction in asthma patients. Airway remodeling has and continues to be a research goal of anti-asthma therapies. […] The change in the […] reached statistical significance and the comparison of the pooled CEP-1347 groups versus placebo approached statistical significance (p=0.06).

[2] = tested on: asthma patients; assay: Phase II clinical study CEP-1347-201: spirometry FEV/FVC; assay type: in vivo, human; conditions: patients with near normal lung function at baseline
Description: The overall mean baseline percent predicted FEV1 (forced expiratory […] in 1 second) and FEV1 values for the study were 96% and 2.9 liters, respectively.

[3] = tested on: exhaled nitric oxide (eNO); assay: Phase II clinical study CEP-1347-201: exhaled nitric oxide (eNO) change from baseline; assay type: in vivo, human; conditions: for eNO Change from Baseline at Week 8, LS Mean: ANCOVA
Description: eNO has been used as a biomarker for measuring airways inflammation. eNO correlates with eosinophilic inflammation in asthmatic patients and is increased in patients with untreated asthma and decreased with corticosteroid treatment.

[4] = tested on: asthma patients; conditions: for patients reporting diarrhea: placebo 8%

CCSCc1ccc2c(c1)c1c3c(c4c5cc(CSCC)ccc5n5c4c1n2C1CC(O)(C(=O)OC)C5(C)O1)CNC3=O (stereo not drawn) [CEP-1347] was tested, and the “MMP 9 Change from baseline, Mean” value ([1]; 10 mg BID, 4 Weeks) was -89.2 pg/mL, the “MMP 9 Change from baseline, Median” value ([1]; 10 mg BID, 4 Weeks) was -79.4 pg/mL and the “MMP 9 Observed Values, Mean” value ([1]; 10 mg BID, 4 Weeks) was 723.4 pg/mL. The “MMP 9 Observed Values, Median” value ([1]; 10 mg BID, 4 Weeks) was 636.5 pg/mL, the “MMP 9 Change from baseline, Mean” value ([1]; 10 mg BID, 8 Weeks) was -108.5 pg/mL and the “MMP 9 Change from baseline, Median” value ([1]; 10 mg BID, 8 Weeks) was -87.6 pg/mL. The “MMP 9 Observed Values, Mean” value ([1]; 10 mg BID, 8 Weeks) was 687.4 pg/mL, the “MMP 9 Observed Values, Median” value ([1]; 10 mg BID, 8 Weeks) was 596.2 pg/mL and the “MMP-9 Change from Baseline at Week 8, LS Mean” value (“MMP-9 Change … LS Mean” for short) ([1]; 10 mg BID, p 0.23) was −98.4. The “MMP-9 change from baseline at week 8 (ANCOVA)” value ([1]; 25 mg BID group relative to placebo, p=0.04) was “statistically significant reduction”, the “MMP 9 Change from baseline, Mean” value ([1]; 25 mg BID, 4 Weeks) was -104.2 pg/mL and the “MMP 9 Change from baseline, Median” value ([1]; 25 mg BID, 4 Weeks) was -104.8 pg/mL. The “MMP 9 Observed Values, Mean” value ([1]; 25 mg BID, 4 Weeks) was 660.4 pg/mL, the “MMP 9 Observed Values, Median” value ([1]; 25 mg BID, 4 Weeks) was 623.4 pg/mL and the “MMP 9 Change from baseline, Mean” value ([1]; 25 mg BID, 8 Weeks) was -147.6 pg/mL. For the same molecule, the “MMP 9 Change from baseline, Median” value ([1]; 25 mg BID, 8 Weeks) was -85.0 pg/mL, the “MMP 9 Observed Values, Mean” value ([1]; 25 mg BID, 8 Weeks) was 633.5 pg/mL and the “MMP 9 Observed Values, Median” value ([1]; 25 mg BID, 8 Weeks) was 582.1 pg/mL. The “MMP-9 Change … LS Mean” value ([1]; 25 mg BID, p 0.04) was −144, the “MMP 9 Change from baseline, Mean” value ([1]; 50 mg BID, 4 Weeks) was -82.4 pg/mL and the “MMP 9 Change from baseline, Median” value ([1]; 50 mg BID, 4 Weeks) was -63.6 pg/mL. For the same molecule, the “MMP 9 Observed Values, Mean” value ([1]; 50 mg BID, 4 Weeks) was 704.1 pg/mL, the “MMP 9 Observed Values, Median” value ([1]; 50 mg BID, 4 Weeks) was 704.2 pg/mL and the “MMP 9 Change from baseline, Mean” value ([1]; 50 mg BID, 8 Weeks) was -114.0 pg/mL. The “MMP 9 Change from baseline, Median” value ([1]; 50 mg BID, 8 Weeks) was -60.1 pg/mL, the “MMP 9 Observed Values, Mean” value ([1]; 50 mg BID, 8 Weeks) was 682.5 pg/mL and the “MMP 9 Observed Values, Median” value ([1]; 50 mg BID, 8 Weeks) was 655.1 pg/mL. The “MMP-9 Change … LS Mean” value ([1]; 50 mg BID, p 0.19) was −104, the “MMP-9 change from baseline at week 8 (ANCOVA)” value ([1]; all CEP-1347 treatment groups relative to placebo, pooled groups vs placebo p=0.06) was “greater reduction” and the “FEV/FVC (ANCOVA)” value [2] was “no clear treatment related trends or statistically significant changes”. For the same molecule, the “eNO Change from Baseline at Week 8, LS Mean” value (“eNO Change … LS Mean” for short) ([3]; 10 mg BID, p 0.26) was −4.86, the “eNO Change … LS Mean” value ([3]; 25 mg BID, p 0.86) was −1.88 and the “eNO Change … LS Mean” value ([3]; 50 mg BID, p 0.58) was −3.08. The “eNO change from baseline at week 8 (ANCOVA)” value ([3]; all CEP-1347 treatment groups relative to placebo, none of the changes achieved statistical significance) was “greater decrease”, the “subjects reporting a severe adverse event” value ([4]; 10 mg BID group) was 2 and the “subjects reporting a severe adverse event” value ([4]; 25 mg BID group) was 1. The “subjects reporting a severe adverse event” value ([4]; 50 mg BID group) was 1, the patients reporting diarrhea ([4]; CEP-1347 groups, all doses combined) was 15% and the “subjects reporting a severe adverse event, total” value ([4]; all groups) was “four”. For the same molecule, the patients reporting diarrhea ([4]; high dose group (50 mg BID)) was 20%, the headache incidence ([4]; treatment group (all CEP-1347 doses), placebo 5%) was 9% and the deaths ([4]; whole study) was “no deaths”.
